These results are taken from patent US12564638B2 (SHANGHAITECH UNIVERSITY, priority 2019, dated 2026).

SMILES strings stand for the structures. Where two headings read alike, the source gives them in different places.

Assay [1] deals with HCC827 cells (EGFR Exon19 del, non-small cell lung cancer cells). Put plainly: Cell viability assay (WST/CCK8), HCC827 cells. Format: cell-based. The note with it: Homo sapiens, HCC827, 72 h, HCC827 (Exon19 Del), 72 hours, read-out: IC50 (half inhibitory concentration). The method, boiled down:
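Plated 3 000 cells/well in complete RPMI1640 the day before dosing; controls were DMSO (negative) and EGFR TKIs (positive).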

In assay [2] the test system is PC9 cells (EGFR Exon 19 del, non-small cell lung cancer cells). Put plainly: Cell viability assay (WST/CCK8), PC9 cells. Type of assay: cell-based. The note with it: Homo sapiens, PC-9, PC9 (Exon19 Del), 72 hours, read-out: IC50 (half inhibitory concentration). From the text: The cell lines with abnormal EGFR expression used are as follows: • HCC827 cells (EGFR Exon19 del, non-small cell lung cancer cells); • PC9 cells (EGFR Exon 19 del, non-small cell lung cancer cells); • PC9BracA1 (EGFR Exon 19 del+T790M, non-small cell lung cancer cells) • H1975 (EGFR Exon T790M+L858R mutation, non-small cell lung cancer cell line) • BT474 cells (HER2 positive breast cancer cells)
All of the half inhibitory concentrations (IC50) of these compounds of the present invention were determined with WST reagent from Fuyuan Biotec Company. The specific experiment procedures are as follows: Cancer cells were planted in 96-well-plate at the density of 3 000 cells per well with 100 μL RPMI1640 completed culture medium. In the next day, compounds with indicated concentrations were added to the cells, DMSO was used as the negative control and the EGFR TKIs were used to treat cells as the positive groups. After 72 hours drug treatment, cell viability was measured by using the WST reagent following the instructions.
The cells were treated with the gradient concentration of these compounds (the maximum concentration: 10 μM; 3-fold dilution ratio, 10 concentration gradients) for 72 hours and then incubated with the WST (CCK8) reagent to determine the cell viability.

The mark [3] stands for this setting: Table 6, canertinib-based compounds, WST.

As to `COc1cc2ncnc(Nc3ccc(F)c(Cl)c3)c2cc1NC(=O)/C=C/CN1CCN(C(=O)CCOCCOCCC(=O)N[C@H](C(=O)N2C[C@H](O)C[C@H]2C(=O)NCc2ccc(-c3scnc3C)cc2)C(C)(C)C)CC1` [SIAIS249045, (2S,4R)-1-((S)-2-(3-(2-(3-(4-((E)-4-((4-((3-chloro-4-fluorophenyl)amino)-7-methoxyquinazolin-6-yl)amino)-4-oxobut-2-en-1-yl)piperazin-1-yl)-3-oxopropoxy)ethoxy)propanamido)-3,3-dimethylbutanoyl)-4-hydroxy-N-(4-(4-methylthiazol-5-yl)benzyl)pyrrolidine-2-carboxamide], the values for the IC50 in assay [1] (WST (CCK8)) and in assay [2] (WST (CCK8)) were 41.9 nM and 691 nM, respectively.

For the molecule `COc1cc2ncnc(Nc3ccc(F)c(Cl)c3)c2cc1NC(=O)/C=C/CN1CCN(C(=O)CCOCCNc2cccc3c2C(=O)N(C2CCC(=O)NC2=O)C3=O)CC1` (stereo not drawn) [SIAIS249046, (E)-N-(4-((3-chloro-4-fluorophenyl)amino)-7-methoxyquinazolin-6-yl)-4-(4-(3-(2-((2-(2,6-dioxopiperidin-3-yl)-1,3-dioxoisoindolin-4-yl)amino)ethoxy)propanoyl)piperazin-1-yl)but-2-enamide], the IC50 in assay [1] (WST (CCK8)) is 3.4 nM; in assay [2] (WST (CCK8)), 57 nM.

`COc1cc2ncnc(Nc3ccc(F)c(Cl)c3)c2cc1NC(=O)/C=C/CN1CCN(C(=O)CCCCNc2cccc3c2C(=O)N(C2CCC(=O)NC2=O)C3=O)CC1` (stereo not drawn) [SIAIS249048, (E)-N-(4-((3-chloro-4-fluorophenyl)amino)-7-methoxyquinazolin-6-yl)-4-(4-(5-((2-(2,6-dioxopiperidin-3-yl)-1,3-dioxoisoindolin-4-yl)amino)pentanoyl)piperazin-1-yl)but-2-enamide]: the IC50 in assay [1] (WST (CCK8)) turned out to be 3.2 nM; in assay [2] (WST (CCK8)), 10.3 nM.

For the molecule `COc1cc2ncnc(Nc3ccc(F)c(Cl)c3)c2cc1NC(=O)/C=C/CN1CCN(C(=O)CCCCCNc2cccc3c2C(=O)N(C2CCC(=O)NC2=O)C3=O)CC1` (stereo not drawn) [SIAIS249049, (E)-N-(4-((3-chloro-4-fluorophenyl)amino)-7-methoxyquinazolin-6-yl)-4-(4-(6-((2-(2,6-dioxopiperidin-3-yl)-1,3-dioxoisoindolin-4-yl)amino)hexanoyl)piperazin-1-yl)but-2-enamide], the IC50 turned out to be 4.6 nM in assay [1] (WST (CCK8)) and 16 nM in assay [2] (WST (CCK8)).

As for `COc1cc2ncnc(Nc3ccc(F)c(Cl)c3)c2cc1NC(=O)/C=C/CN1CCN(C(=O)CNc2cccc3c2CN(C2CCC(=O)NC2=O)C3=O)CC1` (stereo not drawn) [SIAIS249056, (E)-N-(4-((3-chloro-4-fluorophenyl)amino)-7-methoxyquinazolin-6-yl)-4-(4-(2-((2-(2,6-dioxopiperidin-3-yl)-1-oxoisoindolin-4-yl)amino)acetyl)piperazin-1-yl)but-2-enamide], the IC50 in assay [1] (WST (CCK8)) turned out to be 7.3 nM; in assay [2] (WST (CCK8)) it was 4 nM.

For `COc1cc2ncnc(Nc3ccc(F)c(Cl)c3)c2cc1NC(=O)/C=C/CN1CCN(C(=O)CCCNc2cccc3c2CN(C2CCC(=O)NC2=O)C3=O)CC1` (stereo not drawn) [SIAIS249057, (E)-N-(4-((3-chloro-4-fluorophenyl)amino)-7-methoxyquinazolin-6-yl)-4-(4-(4-((2-(2,6-dioxopiperidin-3-yl)-1-oxoisoindolin-4-yl)amino)butanoyl)piperazin-1-yl)but-2-enamide], the IC50 came out at 11.5 nM in assay [1] (WST (CCK8)) and 7.8 nM in assay [2] (WST (CCK8)).

Regarding `COc1cc2ncnc(Nc3ccc(F)c(Cl)c3)c2cc1NC(=O)/C=C/CN1CCN(C(=O)CCCCNc2cccc3c2CN(C2CCC(=O)NC2=O)C3=O)CC1` (stereo not drawn) [SIAIS249058, (E)-N-(4-((3-chloro-4-fluorophenyl)amino)-7-methoxyquinazolin-6-yl)-4-(4-(5-((2-(2,6-dioxopiperidin-3-yl)-1-oxoisoindolin-4-yl)amino)pentanoyl)piperazin-1-yl)but-2-enamide], the values for the IC50 in assay [1] (WST (CCK8)) and in assay [2] (WST (CCK8)) were 5.5 nM and 9.9 nM, respectively.

With `COc1cc2ncnc(Nc3ccc(F)c(Cl)c3)c2cc1NC(=O)/C=C/CN1CCN(C(=O)CCCCCNc2cccc3c2CN(C2CCC(=O)NC2=O)C3=O)CC1` (stereo not drawn) [SIAIS249059, (E)-N-(4-((3-chloro-4-fluorophenyl)amino)-7-methoxyquinazolin-6-yl)-4-(4-(6-((2-(2,6-dioxopiperidin-3-yl)-1-oxoisoindolin-4-yl)amino)hexanoyl)piperazin-1-yl)but-2-enamide], the values for the IC50 in assay [1] (WST (CCK8)) and in assay [2] (WST (CCK8)) were 11.1 nM and 1.2 nM, respectively.

As for `COc1cc2ncnc(Nc3ccc(F)c(Cl)c3)c2cc1NC(=O)/C=C/CN1CCN(C(=O)CCCCCCNc2cccc3c2CN(C2CCC(=O)NC2=O)C3=O)CC1` (stereo not drawn) [SIAIS249060, (E)-N-(4-((3-chloro-4-fluorophenyl)amino)-7-methoxyquinazolin-6-yl)-4-(4-(7-((2-(2,6-dioxopiperidin-3-yl)-1-oxoisoindolin-4-yl)amino)heptanoyl)piperazin-1-yl)but-2-enamide], the results for the IC50 in assay [1] (WST (CCK8)) and in assay [2] (WST (CCK8)) were 11.5 nM and 16 nM, respectively.

In the case of `COc1cc2ncnc(Nc3ccc(F)c(Cl)c3)c2cc1NC(=O)/C=C/CN1CCN(C(=O)CCCNc2cccc3c2C(=O)N(C2CCC(=O)NC2=O)C3=O)CC1` (stereo not drawn) [SIAIS249062, (E)-N-(4-((3-chloro-4-fluorophenyl)amino)-7-methoxyquinazolin-6-yl)-4-(4-(4-((2-(2,6-dioxopiperidin-3-yl)-1,3-dioxoisoindolin-4-yl)amino)butanoyl)piperazin-1-yl)but-2-enamide], the IC50 is 3.7 nM in assay [1] (WST (CCK8)) and 10 nM in assay [2] (WST (CCK8)).

In the case of `COc1cc2ncnc(Nc3ccc(F)c(Cl)c3)c2cc1NC(=O)/C=C/CN1CCC(NC(=O)CCOCCOCCNc2cccc3c2C(=O)N(C2CCC(=O)NC2=O)C3=O)CC1` (stereo not drawn) [SIAIS249086, (E)-N-(4-((3-chloro-4-fluorophenyl)amino)-7-methoxyquinazolin-6-yl)-4-(4-(3-(2-(2-((2-(2,6-dioxopiperidin-3-yl)-1,3-dioxoisoindolin-4-yl)amino)ethoxy)ethoxy)propanamido)piperidin-1-yl)but-2-enamide], the IC50 in assay [1] (WST (CCK8)) amounted to 17 nM; in assay [2] (WST (CCK8)) it was 34.2 nM.

On to `C=CC(=O)Nc1cc2c(Nc3ccc(F)c(Cl)c3)ncnc2cc1OCCCN1CCN(C(=O)CCC(=O)NCCNc2cccc3c2C(=O)N(C2CCC(=O)NC2=O)C3=O)CC1` (stereo not drawn) [SIAIS249100, 4-(4-(3-((6-acrylamido-4-((3-chloro-4-fluorophenyl)amino)quinazolin-7-yl)oxy)propyl)piperazin-1-yl)-N-(2-((2-(2,6-dioxopiperidin-3-yl)-1,3-dioxoisoindolin-4-yl)amino)ethyl)-4-oxobutanamide], for which the IC50 is 41 nM in assay [1] (setting [3]) and 88.5 nM in assay [2] (setting [3]).

Consider `C=CC(=O)Nc1cc2c(Nc3ccc(F)c(Cl)c3)ncnc2cc1OCCCN1CCN(C(=O)CCN2CCN(CCC(=O)N[C@H](C(=O)N3C[C@H](O)C[C@H]3C(=O)NCc3ccc(-c4scnc4C)cc3)C(C)(C)C)CC2)CC1` [SIAIS249101, (2S,4R)-1-((S)-2-(3-(4-(3-(4-(3-((6-acrylamido-4-((3-chloro-4-fluorophenyl)amino)quinazolin-7-yl)oxy)propyl)piperazin-1-yl)-3-oxopropyl)piperazin-1-yl)propanamido)-3,3-dimethylbutanoyl)-4-hydroxy-N-(4-(4-methylthiazol-5-yl)benzyl)pyrrolidine-2-carboxamide], for which the IC50 was found to be 70 nM in assay [1] (setting [3]) and 58.5 nM in assay [2] (setting [3]).

For the molecule `COc1cc2ncnc(Nc3ccc(F)c(Cl)c3)c2cc1NC(=O)/C=C/CN1CCC(N2CCN(C(=O)CCC(=O)NCCOCCNc3cccc4c3C(=O)N(C3CCC(=O)NC3=O)C4=O)CC2)CC1` (stereo not drawn) [SIAIS249103, (E)-N-(4-((3-chloro-4-fluorophenyl)amino)-7-methoxyquinazolin-6-yl)-4-(4-(4-(4-((2-(2-((2-(2,6-dioxopiperidin-3-yl)-1,3-dioxoisoindolin-4-yl)amino)ethoxy)ethyl)amino)-4-oxobutanoyl)piperazin-1-yl)piperidin-1-yl)but-2-enamide], the IC50 in assay [1] (WST (CCK8)) was determined as 12.8 nM; in assay [2] (WST (CCK8)), 20.4 nM.

On to `COc1cc2ncnc(Nc3ccc(F)c(Cl)c3)c2cc1NC(=O)/C=C/CN1CCC(N2CCN(C(=O)CCC(=O)NCCNc3cccc4c3C(=O)N(C3CCC(=O)NC3=O)C4=O)CC2)CC1` (stereo not drawn) [SIAIS249104, (E)-N-(4-((3-chloro-4-fluorophenyl)amino)-7-methoxyquinazolin-6-yl)-4-(4-(4-(4-((2-((2-(2,6-dioxopiperidin-3-yl)-1,3-dioxoisoindolin-4-yl)amino)ethyl)amino)-4-oxobutanoyl)piperazin-1-yl)piperidin-1-yl)but-2-enamide], for which the IC50 came out at 18.2 nM in assay [1] (WST (CCK8)) and 37.6 nM in assay [2] (WST (CCK8)).
